Experimental data published in article PMC4460250, “Systems Pharmacology Dissecting Holistic Medicine for Treatment of Complex Diseases: An Example Using Cardiocerebrovascular Diseases Treated by TCM” (Evidence-based Complementary and Alternative Medicine : eCAM, 2015).

Experiments:
[1] = in vivo
[2] = in vivo; cited from earlier work

| Compound | Class(High: HIA value ≥0.7; Low: HIA value < 0.7) [1] | HIA(Human Intestinal Absorption) [2] |
| --- | --- | --- |
| NC[C@@H](CC(=O)O)c1ccc(Cl)cc1 [Baclofen(S)] | High (key: High: HIA value ≥0.7; Low: HIA value < 0.7) | 0.95 |
| CCN1CCC[C@H]1CNC(=O)c1cc(S(=O)(=O)CC)ccc1OC [Sultopride(S)] | High (key: High: HIA value ≥0.7; Low: HIA value < 0.7) | 0.89 |
| C[C@@H](CN(C)C)CN1c2ccccc2CCc2ccccc21 [Trimipramine(S)] | High (key: High: HIA value ≥0.7; Low: HIA value < 0.7) | 0.8 |
| CC(=O)Nc1ccc(OC[C@H](O)CNC(C)C)cc1 [Practolol(R)] | High (key: High: HIA value ≥0.7; Low: HIA value < 0.7) | 0.95 |
| O=C(O)CCCc1ccc(N(CCCl)CCCl)cc1 [Chlorambucil] | High (key: High: HIA value ≥0.7; Low: HIA value < 0.7) | 1 |
| CN1C(=O)C[C@](C)(c2ccccc2)C1=O [Methsuximide(R)] | High (key: High: HIA value ≥0.7; Low: HIA value < 0.7) | 1 |
| COc1ccc2c3c1O[C@H]1[C@@H](O)C=C[C@H]4[C@@H](C2)N(C)CC[C@@]341 [Codeine] | High (key: High: HIA value ≥0.7; Low: HIA value < 0.7) | 0.93 |
| CCCCC1C(=O)N(c2ccccc2)N(c2ccccc2)C1=O [Phenylbutazone] | High (key: High: HIA value ≥0.7; Low: HIA value < 0.7) | 0.98 |
| CCCC[C@H]1C(=O)N(c2ccccc2)N(c2ccc(O)cc2)C1=O [Oxyphenbutazone(S)] | High (key: High: HIA value ≥0.7; Low: HIA value < 0.7) | 1 |
| CCN(CC)CC[C@@]1(c2ccccc2)CCC(=O)NC1=O [Phenglutarimide(R)] | High (key: High: HIA value ≥0.7; Low: HIA value < 0.7) | 1 |
| CN[C@@H]1[C@@H](O)[C@@H](O[C@@H]2[C@@H](O)[C@H](O[C@H]3O[C@H]([C@@H](C)N)CC[C@H]3N)[C@@H](N)C[C@H]2N)OC[C@]1(C)O [GentamicinC2(R)] | Low (key: High: HIA value ≥0.7; Low: HIA value < 0.7) | 0.01 |
| NC[C@H](CC(=O)O)c1ccc(Cl)cc1 [Baclofen(R)] | High (key: High: HIA value ≥0.7; Low: HIA value < 0.7) | 0.95 |
| CCN[C@@H](C)Cc1cccc(C(F)(F)F)c1 [Fenfluramine(S)] | High (key: High: HIA value ≥0.7; Low: HIA value < 0.7) | 0.95 |
| CN1[C@@H](CSCC(F)(F)F)Nc2cc(Cl)c(S(N)(=O)=O)cc2S1(=O)=O [Polythiazide(S)] | High (key: High: HIA value ≥0.7; Low: HIA value < 0.7) | 1 |
| CC[C@@H](CO)NC(=O)[C@@H]1C=C2c3cccc4c3c(cn4C)C[C@H]2N(C)C1 [Methysergide] | High (key: High: HIA value ≥0.7; Low: HIA value < 0.7) | 1 |
| CCCCCCCN(CC)CCC[C@@H](O)c1ccc(NS(C)(=O)=O)cc1 [Ibutilide(R)] | High (key: High: HIA value ≥0.7; Low: HIA value < 0.7) | 0.82 |
| C[C@H](C(=O)O)c1cccc(Oc2ccccc2)c1 [Fenoprofen(S)] | High (key: High: HIA value ≥0.7; Low: HIA value < 0.7) | 0.85 |

| Compound | Class(High: HIA value ≥0.7; Low: HIA value < 0.7) [1] | HIA(Human Intestinal Absorption) [2] |
| --- | --- | --- |
| CCN(CC)CCN1C(=O)CN=C(c2ccccc2F)c2cc(Cl)ccc21 [Flurazepam] | High (key: High: HIA value ≥0.7; Low: HIA value < 0.7) | 1 |
| CCN(CC)CC[C@]1(c2ccccc2)CCC(=O)NC1=O [Phenglutarimide(S)] | High (key: High: HIA value ≥0.7; Low: HIA value < 0.7) | 1 |
| NCCC[C@](N)(C(=O)O)C(F)F [Eflornithine(S)] | Low (key: High: HIA value ≥0.7; Low: HIA value < 0.7) | 0.55 |
| COP(=O)(OC)O[C@H](c1ccc(Cl)cc1)P(=O)(OC)OC [Mifobate(S)] | High (key: High: HIA value ≥0.7; Low: HIA value < 0.7) | 0.82 |
| NS(=O)(=O)c1cc([C@@]2(O)NC(=O)c3ccccc32)ccc1Cl [Chlorthalidone(S)] | Low (key: High: HIA value ≥0.7; Low: HIA value < 0.7) | 0.65 |
| COc1c(N2CCN[C@H](C)C2)c(F)cc2c(=O)c(C(=O)O)cn(C3CC3)c12 [Gatifloxacin(R)] | High (key: High: HIA value ≥0.7; Low: HIA value < 0.7) | 0.96 |
| Cn1c(=O)c2c(ncn2CCCNC[C@H](O)c2cc(O)cc(O)c2)n(C)c1=O [Reproterol(R)] | Low (key: High: HIA value ≥0.7; Low: HIA value < 0.7) | 0.6 |
| CCOC(=O)C1=C(C)NC(C)=C(C(=O)OC)[C@H]1c1cccc([N+](=O)[O-])c1 [Nitrendipine(R)] | High (key: High: HIA value ≥0.7; Low: HIA value < 0.7) | 0.88 |
| CC[C@@H](C(=O)O)c1ccc(N2Cc3ccccc3C2=O)cc1 [Indobufen(R)] | High (key: High: HIA value ≥0.7; Low: HIA value < 0.7) | 1 |
| CCC[C@H](C)C1(CC)C(=O)NC(=O)NC1=O [Pentobarbital(S)] | High (key: High: HIA value ≥0.7; Low: HIA value < 0.7) | 1 |
| CC(C)(C)NC[C@H](O)COc1ccccc1C1CCCC1 [Penbutolol(S)] | High (key: High: HIA value ≥0.7; Low: HIA value < 0.7) | 1 |
| NCC(=O)O [Glycine] | High (key: High: HIA value ≥0.7; Low: HIA value < 0.7) | 1 |
| COC(=O)C1=C(C)NC(C)=C(C(=O)OCC(C)C)[C@@H]1c1ccccc1[N+](=O)[O-] [Nisoldipine(R)] | High (key: High: HIA value ≥0.7; Low: HIA value < 0.7) | 0.9 |
| Cc1nnc2n1-c1ccc(Cl)cc1C(c1ccccc1)=NC2 [Alprazolam] | High (key: High: HIA value ≥0.7; Low: HIA value < 0.7) | 0.9 |
| CC(=O)Nc1ccc(OC[C@@H](O)CNC(C)C)cc1 [Practolol(S)] | High (key: High: HIA value ≥0.7; Low: HIA value < 0.7) | 0.95 |
| CC(C)(C)NCC(O)COc1ccccc1C1CCCC1 (stereo in doubt) [Penbutolol(R)] | High (key: High: HIA value ≥0.7; Low: HIA value < 0.7) | 1 |
| CN(Cc1cnc2nc(N)nc(N)c2n1)c1ccc(C(=O)N[C@@H](CCC(=O)O)C(=O)O)cc1 [Methotrexate(S)] | High (key: High: HIA value ≥0.7; Low: HIA value < 0.7) | 1 |
